Results reported in PubChem BioAssay AID2202554 (NIEHS Division of Translational Toxicology (DTT)).
Records with an inconclusive call do not appear. Active and inactive are the calls of the source. No rule for the calls is given here.

Test system: S. typhimurium/E. coli reverse mutation, colony counts
Test: Bacterial reverse mutation test (aka Ames test) summary data
Method in brief: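 S. typhimurium his⁻ strains (TA97–TA1538) and E. coli WP2 uvrA pKM101 trp⁻, dosed over a range with or without rat, hamster or mouse liver S9. Preincubated 20 min at 37° C (or plate incorporation), plated in agar, incubated usually two days. Revertant colonies counted against negative controls.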

| SMILES | outcome |
| --- | --- |
| CC(C)COC(=O)COc1cc(Cl)c(Cl)cc1Cl | inactive; negative |
| Nc1cc(S(=O)(=O)O)cc2cc(S(=O)(=O)O)c(N=Nc3ccc(-c4ccc(N=Nc5c(S(=O)(=O)O)cc6cc(S(=O)(=O)O)cc(N)c6c5O)cc4)cc3)c(O)c12 | inactive; negative |
| CCCCn1cc[n+](C)c1 | inactive; negative |
| CCNc1ccccc1 | inactive; negative |
| Clc1ccccc1 | inactive; negative |
| Nc1nc(N)c2nc(-c3ccccc3)c(N)nc2n1 | inactive; negative |
| [O]=[Zr] | inactive; negative |
| c1ccc(NNc2ccccc2)cc1 | active; positive |
| C=CCOC(=O)c1ccccc1C(=O)OCC=C | inactive; negative |
| NC(=O)c1ncn([C@@H]2O[C@H](CO)[C@@H](O)[C@H]2O)n1 | inactive; negative |
| CC(=O)O[C@H](CC(=O)[O-])C[N+](C)(C)C | inactive; negative |
| CCOc1ccc2c(c1)C(C)=CC(C)(C)N2 | inactive; negative |
| C1COCOC1 | active; weakly positive |
| CCN(Cc1cccc(S(=O)(=O)[O-])c1)c1ccc(C(=C2C=CC(=[N+](C)C)C=C2)c2ccc(N(CC)Cc3cccc(S(=O)(=O)O)c3)cc2)cc1 | active; positive |
| COc1ccc2c(c1OC)C(=O)O[C@@H]2[C@H]1c2cc3c(cc2CCN1C)OCO3 | inactive; negative |
| CN(C)c1ccc(N)cc1 | active; positive |
| COC(=O)c1ccccc1N | inactive; negative |
| Nc1ccccc1C(=O)OCC=Cc1ccccc1 | inactive; negative |
| CCN(CC)C(=O)c1cccc(C)c1 | inactive; negative |
| O=c1c2ccc3c4c(ccc(c24)c2nc4ccccc4n12)c(=O)n1c2ccccc2nc31 | active; positive |
| CCOS(C)(=O)=O | active; positive |
| O=C1O[C@H]([C@@H](O)CO)C(O)=C1O | active; weakly positive |

| SMILES | outcome |
| --- | --- |
| Cc1ccc(N)cc1C | active; positive |
| COCCOCCOC | inactive; negative |
| CC(=O)OCc1ccc2c(c1)OCO2 | inactive; negative |
| O=C(O)C(F)(F)C(F)(F)C(F)(F)C(F)(F)C(F)(F)C(F)(F)C(F)(F)C(F)(F)F | inactive; negative |
| COc1ccccc1C=CC=O | active; weakly positive |
| O=C1NC(=O)c2cc([N+](=O)[O-])ccc21 | active; positive |
| Cc1cc(N)ccc1-c1ccc(N)cc1C | active; positive |
| O=C1C=C(O)c2ccccc2C1=O | active; positive |
| CCC(C)C | inactive; negative |
| C[C@]12C=CC(=O)C=C1CC[C@@H]1[C@@H]2C(=O)C[C@@]2(C)[C@H]1CC[C@]2(O)C(=O)CO | active; positive |
| N#CCc1ccccc1 | inactive; negative |
| ClCBr | active; positive |
| CC(=O)Nc1ccc(O)cc1 | inactive; negative |
| COc1cc(Cl)c(OC)cc1Cl | active; positive |
| O=CC(=O)c1ccccc1 | active; positive |
| CCC(Br)(CC)C(=O)NC(N)=O | inactive; negative |
| O=[N+]([O-])c1ccc(Cl)c(Cl)c1Cl | active; positive |
| Cc1ccc(S(=O)(=O)Oc2ccc(N=Nc3ccc(-c4ccc(N=Nc5c(O)ccc6cc(S(=O)(=O)O)cc(S(=O)(=O)O)c56)c(C)c4)cc3C)cc2)cc1 | active; positive |
| CCn1cc[n+](C)c1 | inactive; negative |
| CN | inactive; negative |
| C=C(Cl)CSC(=S)N(CC)CC | active; positive |
| C(=C/c1ccccc1)/c1ccccc1 | inactive; negative |

| SMILES | outcome |
| --- | --- |
| Cc1cc(N=Nc2ccccc2C)ccc1N | active; positive |
| Cc1ccc(S(=O)(=O)NC2CCCCC2)cc1 | inactive; negative |
| Clc1ccc(COC(Cn2ccnc2)c2ccc(Cl)cc2Cl)cc1 (stereo not drawn) | inactive; negative |
| CCNc1cc(O)ccc1C | active; positive |
| CN(C)c1ccc(C(=O)c2ccc(N(C)C)cc2)cc1 | active; positive |
| Cc1ccc(C(=O)O)cc1 | inactive; negative |
| Nc1ccc(Cl)cc1N | active; positive |
| CNC(=O)NC | inactive; negative |
| CC(=O)Nc1cccc(N)c1 | active; positive |
| CCCCC=O | inactive; negative |
| Oc1c(I)cc(Cl)c2cccnc12 | inactive; negative |
| CC/C=C\C/C=C\C/C=C\CCCCCCCC(=O)OCC | active; weakly positive |
| CCOC(=O)CBr | active; positive |
| C=Cc1ccccc1 | inactive; negative |
| Cc1cc(N=Nc2c(O)ccc3ccccc23)c(S(=O)(=O)O)cc1Cl | active; weakly positive |
| CCc1cccc(C)c1N(C(=O)CCl)C(C)COC (stereo not drawn) | inactive; negative |
| N#C/C(N)=C(/N)C#N | inactive; negative |
| O=C(Cl)c1ccc([N+](=O)[O-])cc1 | active; positive |
| Cc1cccc(C)c1O | inactive; negative |
| CCCCN | inactive; negative |
| C=CCOCC1CO1 (stereo not drawn) | active; positive |
| Cc1ccc(C)c([N+](=O)[O-])c1 | active; positive |

| SMILES | outcome |
| --- | --- |
| Clc1ccc(C(c2ccccc2Cl)C(Cl)Cl)cc1 (stereo not drawn) | inactive; negative |
| c1ccc(N=Nc2ccccc2)cc1 | active; positive |
| O=C(O)c1ccc(S(=O)(=O)N(Cl)Cl)cc1 | active; positive |
| CC[n+]1c(-c2ccccc2)c2cc(N)ccc2c2ccc(N)cc21 | active; positive |
| CCCCCc1cc(O)c2c(c1)OC(C)(C)[C@@H]1CCC(C)=C[C@@H]21 | inactive; negative |
| O=C1c2c(O)cccc2Cc2cccc(O)c21 | inactive; negative |
| Nc1cccc(Cl)c1 | inactive; negative |
| Nc1ccc(O)c(C(=O)O)c1 | inactive; negative |
| O=C1CCO1 | active; positive |
| CC(C)=CCC/C(C)=C/CC/C(C)=C/CC/C=C(\C)CC/C=C(\C)CCC=C(C)C | inactive; negative |
| CCCCOc1ccc(C=Nc2ccc(CC)cc2)cc1 | active; weakly positive |
| O=NN(CCO)CCO | active; positive |
| O=[N+]([O-])c1ccc(NCCO)c(OCCO)c1 | active; positive |
| COc1c(C(C)(C)C)cc([N+](=O)[O-])c(C)c1[N+](=O)[O-] | inactive; negative |
| CCC[CH2][Sn]([CH2]CCC)([O]C(C)=O)[O]C(C)=O | inactive; negative |
| Cc1c(C)c2c(c(C)c1OC(=O)CCC(=O)O)CC[C@@](C)(CCC[C@H](C)CCC[C@H](C)CCCC(C)C)O2 | inactive; negative |
| CCCCC(CC)COC(=O)c1ccc(C(=O)OCC(CC)CCCC)c(C(=O)OCC(CC)CCCC)c1 (stereo not drawn) | inactive; negative |
| Oc1cccc2cccnc12 | active; positive |
| O=c1c2ccccc2c(=O)c2c1ccc1[nH]c3c(ccc4c(=O)c5ccccc5c(=O)c43)[nH]c12 | inactive; negative |
| CCOc1cccc(N)c1 | active; weakly positive |
| CC(C)(c1cc(Br)c(OCC(Br)CBr)c(Br)c1)c1cc(Br)c(OCC(Br)CBr)c(Br)c1 (stereo not drawn) | inactive; negative |
| O=Cc1ccccc1C=O | active; positive |
